Experimental data from patent US6545053B1, “Tricyclic compounds and drug compositions containing same” (Asahi Kasei Kogyo Kabushiki Kaisha, priority 1996, dated 2003).
Structures can show the parent of a compound that is named as a salt. Where two headings read alike, the source gives them in different places.

Molecular target: T1, human β3 (Homo sapiens, UniProt P13945)
T1 construct: And then full length of human β3 gene was cloned using this fragment as a probe; expressed in transfected cells; host or cells: CHO cells (Chinese hamster ovary), pcDNA3 vector
T1 sequence (P13945 whole entry, the tested form may be a part): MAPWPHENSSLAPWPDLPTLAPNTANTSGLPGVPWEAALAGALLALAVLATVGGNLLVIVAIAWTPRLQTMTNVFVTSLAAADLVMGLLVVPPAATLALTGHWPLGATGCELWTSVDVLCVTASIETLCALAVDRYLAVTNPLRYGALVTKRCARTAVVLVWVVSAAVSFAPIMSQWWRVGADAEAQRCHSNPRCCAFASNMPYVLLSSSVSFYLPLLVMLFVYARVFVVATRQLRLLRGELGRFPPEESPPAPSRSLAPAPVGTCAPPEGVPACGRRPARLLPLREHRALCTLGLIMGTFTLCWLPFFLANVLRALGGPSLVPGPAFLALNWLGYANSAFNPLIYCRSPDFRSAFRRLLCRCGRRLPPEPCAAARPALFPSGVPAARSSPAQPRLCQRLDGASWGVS
Assay: Human β3-agonist activity (cAMP in CHO cells transfected with human β3 gene)
Format: cell-based
Settings: for Emax: CHO, read-out: Intrinsic activity (%)
Protocol: Human β3-agonist Activity
Human β3-agonist activity was examined using CHO cells (chinese hamster ovarian cells) to which pcDNA3 (in vitrogen) cells inserted human β3 gene was transfected. Human β3 fragment was obtained by PCR using human fat tissue cDNA (supplied from Clontech) with a β3 primer [Krief et al, J. Clin. Invest.
The cells were cultured in a HAM F-12 medium containing 10% of fetal bovine serum, 400 μg/ml of Geneticin (Gibco BRL). 100 U/ml penicillin and 100 μg/ml streptomycin. 5×10^5 cells were placed on a 6-well plate and cultured for 24 hours, after which the medium was changed to a HAM F-12 medium without serum and was kept for 2 hours. Each test compound was first dissolved in DMSO, and then diluted with a HAM F-12 medium containing 1 mM isobutylmethyl xanthine and 1 mM ascorbic acid. A 10-fold dilution in the range of 10^−5 to 10^−12 M was added into the cell.
After culturing for 30 minutes, culture medium was withdrawn, 0.5 ml of 1 N NaOH was added and was kept for 20 minutes. And then 0.5 ml of 1 N acetic acid was added with subsequent agitation and centrifugation. Finally the concentration of cAMP were analyzed using cAMP EIA KIT (Cayman). […] Isoprotelenol was purchased from Research Biochimicals International.

[1] = cAMP, CHO cells with human β3, read-out: ED50 (the source's name)

EC50 [1]	Intrinsic activity (%) (relative activity for isoproterenol, cAMP, CHO cells with human β3)	Structure (SMILES)	EC50	Emax
–	–	CS(=O)(=O)Nc1cc(C(O)CNCCOc2ccc3c(c2)[nH]c2ccccc23)ccc1OCc1ccccc1 (racemic) [Example 1, (±)-N-[5-[2-[2-(9H-Carbazol-2-yloxy)ethylamino]-1-hydroxyethyl]-2-benzyloxyphenyl]methanesulfonamide Hydrochloride]	0.34 µM	80%
–	–	CS(=O)(=O)Nc1cc(C(O)CNCCOc2ccc3c(c2)[nH]c2ccccc23)ccc1F (racemic) [Example 5, (±)-N-[5-[2-[2-(9H-Carbazol-2-yloxy)ethylamino]-1-hydroxyethyl]-2-fluorophenyl]methanesulfonamide Hydrochloride]	0.066 µM	114%
–	–	CS(=O)(=O)Nc1cc(C(O)CNCCOc2ccc3c(c2)[nH]c2ccccc23)ccc1Cl (racemic) [Example 6, (±)-N-[5-[2-[2-(9H-Carbazol-2-yloxy)ethylamino]-1-hydroxyethyl]-2-chlorophenyl]methanesulfonamide Hydrochloride]	0.033 µM	119%
–	–	O=S(=O)(Cc1ccccc1)Nc1cccc(C(O)CNCCOc2ccc3c(c2)[nH]c2ccccc23)c1 (racemic) [Example 8, (±)-N-[3-[2-[2-(9H-Carbazol-2-yloxy)ethylamino]-1-hydroxyethyl]phenyl]phenylmethanesulfonamide Hydrochloride]	0.72 µM	47%
0.15 µM	–	CC(=O)Nc1ccc2c(c1)Cc1cc(OCCNCC(O)c3cccc(NS(C)(=O)=O)c3)ccc1-2 (racemic) [Example 10, (±)-N-[3-[2-[2-(9H-7-Acetylaminofluoren-2-yloxy)ethylamino]-1-hydroxyethyl]phenyl]methanesulfonamide Hydrochloride]	–	47%
0.026 µM	–	CC(COc1ccc2c(c1)[nH]c1ccccc12)NCC(O)c1cccc(NS(C)(=O)=O)c1 (racemic) [Example 11, (±)-N-[3-[2-[[1-(9H-Carbazol-2-yloxy)propan-2R-yl]amino]-1-hydroxyethyl]phenyl]methanesulfonamide Hydrochloride]	–	95%
–	–	CNS(=O)(=O)c1cccc(C(O)CNCCOc2ccc3c(c2)[nH]c2ccccc23)c1 (racemic) [Example 16, (±)-N-methyl-3-[2-[2-(9H-Carbazol-2-yloxy)ethylamino]-1-hydroxyethyl]benzenesulfonamide Hydrochloride]	0.03 µM	99%
–	–	O=CNc1cccc(C(O)CNCCOc2ccc3c(c2)[nH]c2ccccc23)c1 (racemic) [Example 17, (±)-N-[3-[2-[2-(9H-Carbazol-2-yloxy)ethylamino]-1-hydroxyethyl]phenyl]formamide Hydrochloride]	0.91 µM	53%
0.032 µM	–	O=[N+]([O-])c1cc(C(O)CNCCOc2ccc3c(c2)[nH]c2ccccc23)ccc1O (racemic) [Example 18, (±)-2-[N-[2-(9H-Carbazol-2-yloxy)ethyl]amino]-1-(4-hydroxy-3-nitrophenyl)]ethanol Hydrochloride]	–	90%
–	–	OC(CNCCOc1ccc2c(c1)[nH]c1ccccc12)c1ccccc1F (racemic) [Example 28, (±)-2-[N-[2-(9H-Carbazol-2-yloxy)ethyl]amino]-1-(2-fluorophenyl)ethanol Hydrochloride]	1 µM	97%
–	–	Oc1ccc(C(O)CNCCOc2ccc3c(c2)[nH]c2ccccc23)cc1 (racemic) [Example 29, (±)-2-[N-[2-(9H-Carbazol-2-yloxy)ethyl]amino]-1-(4-hydroxyphenyl)ethanol Hydrochloride]	0.25 µM	120%
–	–	OC(CNCCOc1ccc2oc3ccccc3c2c1)c1ccccc1 (racemic) [Example 34, (±)-2-[N-[2-(Dibenzofuran-2-yloxy)ethyl]amino]-1-phenyl ethanol Hydrochloride]	4.6 µM	37%
0.017 µM	–	CC(=O)Nc1ccc2c(c1)Cc1cc(OCCNCC(O)c3ccc(O)c(NS(=O)(=O)N(C)C)c3)ccc1-2 (racemic) [Example 45, (±)-N′-[5-[2-[2-(9H-7-Acetylaminofluoren-2-yloxy)ethylamino]-1-hydroxyethyl]-2-hydroxyphenyl]-N,N-dimethylsulfamide Hydrochloride]	–	89%
2 µM	–	Nc1cccc(C(O)CNCCOc2ccc3c(c2)[nH]c2ccccc23)c1 (racemic) [Example 47, (±)2-[N-[2-(9H-Carbazol-2-yloxy)ethyl]amino]-1-(3-aminophenyl)]ethanol Hydrochloride]	–	86%
–	–	CN(C)S(=O)(=O)Nc1cccc(C(O)CNCCOc2ccc3c(c2)[nH]c2ccccc23)c1 (racemic) [Example 48, (±)-N′-[3-[2-[2-(9H-Carbazol-2-yloxy)ethylamino]-1-hydroxyethyl]phenyl]-N,N-dimethylsulfamide Hydrochloride]	0.22 µM	73%
–	–	CS(=O)(=O)Nc1cc(C(O)CNCCOc2ccc3c(c2)oc2ccccc23)ccc1F (racemic) [Example 55, (±)-N-[5-[2-[2-(Dibenzofuran-3-yloxy)ethylamino]-1-hydroxyethyl]2-fluorophenyl]methanesulfonamide Hydrochloride]	0.23 µM	76%
–	–	CS(=O)(=O)Nc1cc(C(O)CNCCOc2ccc3c(c2)sc2ccccc23)ccc1F (racemic) [Example 56, (±)-N-[5-[2-[2-(Dibenzothiophen-3-yloxy)ethylamino]-1-hydroxyethyl]-2-fluorophenyl]methanesulfonamide Hydrochloride]	0.63 µM	97%
–	–	CS(=O)(=O)Nc1cc(C(O)CNCCOc2ccc3c(c2)oc2ccccc23)ccc1Cl (racemic) [Example 57, (±)-N-[5-[2-[2-(Dibenzofuran-3-yloxy)ethylamino]-1-hydroxyethyl]-2-chlorophenyl]methanesulfonamide Hydrochloride]	0.23 µM	68%
–	–	CS(=O)(=O)Nc1cc(C(O)CNCCOc2ccc3c(c2)sc2ccccc23)ccc1Cl (racemic) [Example 58, (±)-N-[5-[2-[2-(Dibenzothiophen-3-yloxy)ethylamino]-1-hydroxyethyl]-2-chlorophenyl]methanesulfonamide Hydrochloride]	0.55 µM	91%
–	–	CS(=O)(=O)Nc1cc(O)cc(C(O)CNCCOc2ccc3c(c2)[nH]c2ccccc23)c1 (racemic) [Example 62, (±)-N-[5-[2-[2-(9H-Carbazol-2-yloxy)ethylamino]-1-hydroxyethyl]-3-hydroxyphenyl]methanesulfonamide Hydrochloride]	0.21 µM	106%
0.072 µM	–	CNS(=O)(=O)c1cc(C(O)CNCCOc2ccc3c(c2)[nH]c2ccccc23)ccc1O (racemic) [Example 66, (±)-N-methyl-[5-[2-[2-(9H-Carbazol-2-yloxy)ethylamino]-1-hydroxyethyl]-2-hydroxy]benzenesulfonamide Hydrochloride]	–	106%
0.038 µM	92%	CC(=O)Nc1ccc2[nH]c3cc(OCCNCC(O)c4cccc(NS(C)(=O)=O)c4)ccc3c2c1.Cl (racemic) [Example 68, (±)-N-[3-[2-[2-(9H-6-(Acetylamino)carbazol-2-yloxy]ethylamino]-1-hydroxyethyl]phenyl]methanesulfonamide Hydrochloride]	–	–
–	–	CS(=O)(=O)Nc1cc(C(O)CNCCOc2ccc3c(c2)[nH]c2ccccc23)ccc1N (racemic) [Example 82, (±)-N-[5-[2-[2-(9H-Carbazol-2-yloxy)ethylamino]-1-hydroxyethyl]-2-aminophenyl]methanesulfonamide Hydrochloride]	2.8 µM	130%
0.74 µM	–	CN(Cc1ccccc1)S(=O)(=O)c1cc(C(O)CNCCOc2ccc3c(c2)[nH]c2ccccc23)ccc1O (racemic) [Example 83, (±)-N-Methyl-N-benzyl-[5-[2-[2-(9H-carbazol-2-yloxy)ethylamino]-1-hydroxyethyl]-2-hydroxy]benzenesulfonamide Hydrochloride]	–	79%
0.058 µM	–	CS(=O)(=O)Nc1cc(C(O)CNCCOc2ccc3c(c2)[nH]c2ccccc23)ccc1CO (racemic) [Example 84, (±)-N-[5-[2-[2-(9H-Carbazol-2-yloxy)ethylamino]-1-hydroxyethyl]-2-(hydroxymethyl)phenyl]methanesulfonamide]	–	71%
0.056 µM	–	CS(=O)(=O)Nc1cc(C(O)CNCCOc2ccc3c(c2)[nH]c2ccccc23)ccc1Br (racemic) [Example 85, (±)-N-[5-[2-[2-(9H-Carbazol-2-yloxy)ethylamino]-1-hydroxyethyl]-2-bromophenyl]methanesulfonamide]	–	70%
–	–	CN(Cc1ccccc1)S(=O)(=O)Nc1cc(C(O)CNCCOc2ccc3c(c2)[nH]c2ccccc23)ccc1O (racemic) [Example 87, (±)-N′-[5-[2-[2-(9H-Carbazol-2-yloxy)ethylamino]-1-hydroxyethyl]-2-hydroxyphenyl]-N-methyl-N-benzylsulfamide Hydrochloride]	0.084 µM	138%
